Drawing on PubChem BioAssay AID330 (DTP/NCI, 2004), this text covers T/C for 23 compounds.

Where “and” joins values, the source holds several entries; their conditions need not be identical. Equal entries are not always repeated. Toxic doses and inconclusive results are not listed.

The test system of the assay is P388 leukemia ip, CD2F1 mice, survival T/C. The assay can be described thus: NCI In Vivo Anticancer Drug Screen. Data for tumor model P388 Leukemia (intraperitoneal) in CD2F1 (CDF1) mice. Conditions: endpoint: median survival time, higher = longer survival. The procedure, abridged: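 Mice carrying the transplanted tumor received test compound or vehicle. Survival was recorded in each group, and the value is the treated-group measurement divided by that of the vehicle-treated control group.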

[1] abbreviates: dose: 60.0 mg/kg/injection, schedule: Q01DX005 (ip), vehicle: Klucel (hydroxypropylcellulose) (HPC).
[2] abbreviates: dose: 120.0 mg/kg/injection, schedule: Q01DX005 (ip), vehicle: Klucel (hydroxypropylcellulose) (HPC).
The mark [3] stands for this setting: dose: 240.0 mg/kg/injection, schedule: Q01DX005 (ip), vehicle: Klucel (hydroxypropylcellulose) (HPC).
Where [4] appears, read: dose: 12.5 mg/kg/injection, schedule: Q01DX009 (ip), vehicle: saline.
Where [5] appears, read: dose: 25.0 mg/kg/injection, schedule: Q01DX009 (ip), vehicle: saline with Tween-80.
The mark [6] stands for this setting: dose: 50.0 mg/kg/injection, schedule: Q01DX009 (ip), vehicle: saline with Tween-80.
[7] abbreviates: dose: 100.0 mg/kg/injection, schedule: Q01DX009 (ip), vehicle: saline with Tween-80.
Setting [8] is: dose: 200.0 mg/kg/injection, schedule: Q01DX009 (ip), vehicle: saline with Tween-80.
Where [9] appears, read: dose: 50.0 mg/kg/injection, schedule: Q01DX009 (ip), vehicle: Klucel (hydroxypropylcellulose) (HPC).
Where [10] appears, read: dose: 100.0 mg/kg/injection, schedule: Q01DX009 (ip), vehicle: Klucel (hydroxypropylcellulose) (HPC).
The mark [11] stands for this setting: dose: 200.0 mg/kg/injection, schedule: Q01DX009 (ip), vehicle: Klucel (hydroxypropylcellulose) (HPC).
[12] abbreviates: dose: 12.5 mg/kg/injection, schedule: Q01DX009 (ip), vehicle: saline with Tween-80.
[13] abbreviates: dose: 50.0 mg/kg/injection, schedule: Q01DX005 (ip), vehicle: saline with Tween-80.
[14] abbreviates: dose: 100.0 mg/kg/injection, schedule: Q01DX005 (ip), vehicle: saline with Tween-80.
[15] abbreviates: dose: 200.0 mg/kg/injection, schedule: Q01DX005 (ip), vehicle: saline with Tween-80.
[16] abbreviates: dose: 60.0 mg/kg/injection, schedule: Q01DX005 (ip), vehicle: saline with Tween-80.
The mark [17] stands for this setting: dose: 120.0 mg/kg/injection, schedule: Q01DX005 (ip), vehicle: saline with Tween-80.
Setting [18] is: dose: 240.0 mg/kg/injection, schedule: Q01DX005 (ip), vehicle: saline with Tween-80.

Regarding `Nc1ccc(C2NC(=O)Cc3c2ccc2ccccc32)cc1` (stereo not drawn), the T/C is, setting by setting: under setting [1], 95 % of control; under setting [2], 94 % of control; under setting [3], 95 % of control.

For the compound `COc1ccc2cc1Oc1ccc(cc1)C[C@H]1c3c(cc(OC)c(O)c3Oc3cc4c(cc3OC)CCN(C)[C@@H]4C2)CCN1C`, the T/C runs as follows: (dose: 25.0 mg/kg/injection, schedule: Q01DX001 (ip), vehicle: saline) 101 % of control; (dose: 50.0 mg/kg/injection, schedule: Q01DX001 (ip), vehicle: saline) 106 % of control; (dose: 100.0 mg/kg/injection, schedule: Q01DX001 (ip), vehicle: saline) 106 % of control; (dose: 200.0 mg/kg/injection, schedule: Q01DX001 (ip), vehicle: saline) 100 % of control.

Regarding `Cc1ccc(S(=O)(=O)c2c(O)c3ccccc3c3nc4ccccc4nc23)cc1`, the T/C under setting [4] was 90 % of control; the T/C (dose: 12.5 mg/kg/injection, schedule: Q01DX009 (ip), vehicle: suspension in saline) is 88 % of control; the T/C (dose: 25.0 mg/kg/injection, schedule: Q01DX009 (ip), vehicle: suspension in saline) was 90 % of control; the T/C (dose: 50.0 mg/kg/injection, schedule: Q01DX009 (ip), vehicle: saline) is 89 % of control; the T/C (dose: 50.0 mg/kg/injection, schedule: Q01DX009 (ip), vehicle: suspension in saline) was 88 % of control; the T/C (dose: 200.0 mg/kg/injection, schedule: Q01DX009 (ip), vehicle: saline) is 91 % of control.

Turning to `Cn1c(-c2ccccc2)nc(-c2ccccc2)[n+]1[O-]`, the T/C was 102 % of control under setting [1], 96 % of control under setting [2] and 95 % of control under setting [3].

As for `CCCNN1CCN(c2ccncc2S(=O)(=O)N2CCCCC2)CC1`, the T/C runs as follows: under setting [1], 98 % of control; under setting [2], 99 % of control; under setting [3], 94 % of control.

In the case of `CCOCCSc1ccccc1`, the T/C reads like this: under setting [5], 99 % of control; under setting [6], 103 % of control; under setting [7], 112 % of control; under setting [8], 105 % of control.

Regarding `COc1cccc(/C=N\NC(=O)C(=O)N/N=C\c2cccc(OC)c2O)c1O`, the T/C is, setting by setting: under setting [9], 86 % of control; under setting [10], 89 % of control; under setting [11], 92 % of control.

As to `CC(C)=CCC/C(C)=C/Cc1ccccc1`, the T/C was 101 % of control and 109 % of control under setting [6]; 103 % of control and 110 % of control under setting [7]; 109 % of control under setting [8].

Consider `COc1cc2c(c(OC)c1OC)-c1ccc(OC)c(=O)cc1[C@@H](N(C)C=O)CC2`, for which, where the note is “dose: 1.25 mg/kg/injection, schedule: Q01DX009 (ip), vehicle: Klucel (hydroxypropylcellulose) (HPC)”, the T/C was 171 % of control.

Turning to `O=C(CBr)c1ccc(F)cc1`, the T/C was 113 % of control under setting [12]; 104 % of control (dose: 25.0 mg/kg/injection, schedule: Q04DX003 (ip), vehicle: saline with Tween-80); 100 % of control (dose: 50.0 mg/kg/injection, schedule: Q04DX003 (ip), vehicle: saline with Tween-80).

As to `CC(=O)O[C@@H]1C[C@@](C)(C[C@H]2COC(=O)C2)[C@@H]2CC(=O)O[C@@H]3C[C@H]4C(C)=C[C@@H](O)C(=O)[C@]4(C)[C@@H]1[C@@]32C`, the T/C reads like this: (dose: 1.5 mg/kg/injection, schedule: Q01DX009 (ip), vehicle: Klucel (hydroxypropylcellulose) (HPC)) 99 % of control; (dose: 3.0 mg/kg/injection, schedule: Q01DX009 (ip), vehicle: Klucel (hydroxypropylcellulose) (HPC)) 92 % of control; (dose: 6.0 mg/kg/injection, schedule: Q01DX009 (ip), vehicle: Klucel (hydroxypropylcellulose) (HPC)) 108 % of control; (dose: 12.0 mg/kg/injection, schedule: Q01DX009 (ip), vehicle: Klucel (hydroxypropylcellulose) (HPC)) 91 % of control.

For the compound `Cc1c(N=Nc2cccc(F)c2)c(-c2ccccc2)nn1C(=S)S`, the T/C is 117 % of control under setting [13], 111 % of control under setting [14] and 104 % of control under setting [15].

Turning to `COc1ccc2c(c1N)CC[C@@H]1C2CC[C@]2(C)C(O)CCC12` (stereo partly drawn), the T/C under setting [13] was 104 % of control, the T/C under setting [14] is 96 % of control and the T/C under setting [15] was 91 % of control.

On to `CCOC([O-])=N/C(=N/[n+]1ccc(C)cc1)c1ccccc1`, for which the T/C runs as follows: (dose: 100.0 mg/kg/injection, schedule: Q04DX003 (ip), vehicle: saline) 104 % of control; (dose: 200.0 mg/kg/injection, schedule: Q04DX003 (ip), vehicle: saline) 106 % of control.

Take `O=C(O)COc1ccc(F)c(F)c1`: the T/C is, setting by setting: under setting [1], 101 % of control and 104 % of control; under setting [2], 106 % of control and 94 % of control; under setting [3], 100 % of control and 86 % of control.

`CC1OC(OC2C(O[C@H]3CC[C@@]4(C)C(=CC[C@H]5[C@@H]6C[C@@H]7O[C@]8(CC[C@H](C)CN8)[C@@H](C)[C@@H]7[C@@]6(C)CC[C@@H]54)C3)OC(CO)C(O)C2OC2OC(CO)C(O)C(O)C2O)C(O)C(O)C1O` (stereo partly drawn): the T/C by setting is: (dose: 6.25 mg/kg/injection, schedule: Q01DX009 (ip), vehicle: saline with Tween-80) 90 % of control; under setting [12], 86 % of control; under setting [5], 90 % of control.

For the compound `Cc1ccc(S(=O)(=O)N2OC2c2ccccc2C)cc1` (stereo not drawn), the T/C by setting is: under setting [9], 107 % of control; under setting [10], 106 % of control; under setting [11], 103 % of control.

With `O=C(NC(C(=O)O)C1CC(Cl)=NO1)OCc1ccc([N+](=O)[O-])cc1` (stereo not drawn), the T/C was 108 % of control (dose: 6.2 mg/kg/injection, schedule: Q04DX003 (ip), vehicle: other) and 117 % of control (dose: 12.5 mg/kg/injection, schedule: Q04DX003 (ip), vehicle: other).

Turning to `O=C1C(c2ccccc2)=C(c2ccccc2)/C1=C\c1ccc(Cl)cc1Cl`, the T/C under setting [9] was 87 % of control and the T/C under setting [10] is 87 % of control.

Take `NCCCn1[nH]c(=O)c2cccnc2c1=O`: the T/C is, setting by setting: under setting [16], 101 % of control; under setting [17], 100 % of control; under setting [18], 95 % of control.

On to `CC(C)CCCC(C)C1CCC2C3CC=C4CC(O)CCC4(C)C3CCC12C` (stereo not drawn) (tested in a mixture with another compound), for which the T/C is, setting by setting: (dose: 3.12 mg/kg/injection, schedule: Q01DX009 (ip), vehicle: saline) 87 % of control; (dose: 6.25 mg/kg/injection, schedule: Q01DX009 (ip), vehicle: saline) 92 % of control; under setting [4], 94 % of control; (dose: 25.0 mg/kg/injection, schedule: Q01DX009 (ip), vehicle: saline) 94 % of control.

In the case of `O=C(CCCl)Nc1cccc(CCC(=O)c2ccccc2NC(=O)CCCl)c1`, the T/C by setting is: under setting [16], 89 % of control; under setting [17], 93 % of control; under setting [18], 88 % of control.

For the compound `CN(C)CCCNc1c2ccccc2nc2cccc([N+](=O)[O-])c12`, the T/C is 102 % of control and 108 % of control (dose: 0.03 mg/kg/injection, schedule: Q01DX009 (ip), vehicle: water); 107 % of control and 115 % of control (2×) (dose: 0.06 mg/kg/injection, schedule: Q01DX009 (ip), vehicle: water); 115 % of control and 120 % of control and 123 % of control (dose: 0.13 mg/kg/injection, schedule: Q01DX009 (ip), vehicle: water); 107 % of control and 96 % of control (dose: 0.25 mg/kg/injection, schedule: Q01DX009 (ip), vehicle: water); 100 % of control (dose: 8.0 micrograms/kg/injection, schedule: Q01DX009 (ip), vehicle: saline); 119 % of control (dose: 16.0 micrograms/kg/injection, schedule: Q01DX009 (ip), vehicle: saline). Also, the T/C (dose: 32.0 micrograms/kg/injection, schedule: Q01DX009 (ip), vehicle: saline) was 100 % of control; the T/C (dose: 63.0 micrograms/kg/injection, schedule: Q01DX009 (ip), vehicle: saline) is 123 % of control; the T/C (dose: 125.0 micrograms/kg/injection, schedule: Q01DX009 (ip), vehicle: saline) was 117 % of control; the T/C (dose: 250.0 micrograms/kg/injection, schedule: Q01DX009 (ip), vehicle: saline) is 116 % of control.
